Results on four molecules are retold here after patent US10206930B2, “Methods for treating T-cell acute lymphoblastic leukemia” (New York University, priority 2015, dated 2019).

As a reminder, the IC50 is the midpoint of a concentration-inhibition curve.

One data set relates to T-ALL cells. The experiment in a line: IC50 of GSKJ4 on T-ALL cell proliferation, normalized to control inhibitor GSKJ5. The class given is cell-based. Particulars: Homo sapiens, 120 h, 5 days treatment, FIG. 11A CUTLL1, read-out: IC50 determined for T-ALL cells.
The subject of data set [1] is human T-ALL cell lines and primary human T-ALL cells. Kind of data set: Cell growth, annexin V apoptosis and BrdU cell cycle analysis of T-ALL cells. More on the design: dose or concentration left out as unconfirmed. In kind it is cell-based. The text has this: Mice, Cell Culture and Primary Cell Samples. The Jmjd3 (Satoh et al., “The Jmjd3-Irf4 Axis Regulates M2 Macrophage Polarization and Host Responses Against Helminth Infection,” Nature Immunol. 11:936-944 (2010), which is hereby incorporated in its entirety) and Utx (Welstead et al., “X-linked H3K27me3 Demethylase Utx is Required for Embryonic Development in a Sex-Specific Manner,” Proc. Natl. Acad. Sci. USA 109:13004-13009 (2012), which is hereby incorporated by reference in its entirety) knockout mouse models, as well as the corresponding genotyping strategy, have been described previously. All animals used in this study were treated according to IACU protocols. The human T-ALL cell lines CUTLL1 (Palomero et al., “CUTLL1, a Novel Human T-Cell Lymphoma Cell Line With t(7; 9) Rearrangement, Aberrant NOTCH1 Activation and High Sensitivity to c-Secretase Inhibitors,” Leukemia 20:1279-1287 (2006), which is hereby incorporated by reference in its entirety), P12-Ichikawa, Loucy, DND41, CEM and Jurkat and the myeloid leukaemia cell lines (THP-1 and HL-60), as well as the mouse T-ALL line (720) (Sharma et al., “Notch1 Contributes to Mouse T-cell Leukemia by Directly Inducing the Expression of c-myc,” Mol. Cell. Biol. 26:8022-8031 (2006), which is hereby incorporated by reference in its entirety), were cultured in RPMI 1640 medium supplemented with 20% FBS and penicillin and streptomycin. […] Primary human samples were collected by collaborating institutions with informed consent and were analyzed under the supervision of the Columbia University Medical Center and St. Jude Children's Research Hospital Institutional Review Boards. […]
T-ALL cells were infected twice with shRNA-expressing retroviruses and selected using puromycin. […] For the cell cycle analysis, 5-bromodeoxyuridine (BrdU; 10 mM) was added for a 1 hour pulse, and incorporation into DNA was determined by using the BrdU Flow Kit (BD Biosciences). Apoptosis was studied by quantification of annexin V staining using the BD Biosciences kit and flow cytometry according to standard protocols provided by the manufacturer. […]

The test system of data set [2] is myeloid leukaemia cells, stromal cells and haematopoietic progenitor cells. The experiment in a line: Growth of non-T-ALL control cells under GSKJ4. The class given is cell-based. The note with it: FIGS. 12L-12M.
Data set [3] has as its system human T-ALL cells (CUTLL1). The experiment in a line: Genome-wide expression analysis (RNA-seq) of treated T-ALL cells. The class given is cell-based. How it is done: Whole RNA was extracted from 1-5×10^6 T-ALL cells or primary cells using the RNeasy kit (QIAGEN) according to the manufacturer's protocol. Poly(A)^+ RNA was enriched using magnetic oligo(dT)-containing beads (Invitrogen). cDNA was prepared and strand-specific libraries were constructed using the dUTP method as described previously (Zhong et al., “High-Throughput Illumina Strand-Specific RNA Sequencing Library Preparation,” Cold Spring Harb. Protoc. 2011:940-949 (2011), which is hereby incorporated by reference in its entirety). Libraries were sequenced on the IIlumina HiSeq 2000 using the 50-base-pair single-read method.
Differential gene expression analysis was performed for each matched knockdown versus control pair, separately in each biological or technical replicate in each of two cell lines (CUTLL1 and CEM). Three types of comparisons were tested: (1) JMJD3 knockdown versus Renilla; (2) JMJD3 knockdown versus UTX knockdown; and (3) UTX knockdown versus Renilla. DEGseq44 was used to analyze (a) matched knockdown—Renilla replicates in separate DEGseq runs and (b) all replicates on a combined DEGexp run. For the mouse (Utx knockout) samples, spleen and bone marrow from a wild-type male (referred to as animal #9), as well as spleen from a wild-type female (animal #10), were compared with spleen and bone marrow from a knockout male (#23) and spleen from another knockout male (#27) (see also the GEO accession G5E56696). For illustration, scatter plots (FIG. 4D and FIGS. 5G-I) were created using values obtained from DEGseq analysis of merged biological and/or technical replicates. Gene RNA-seq FPKM values were computed using GenomicTools (Tsirigos et al., “GenomicTools: A Computational Platform for Developing High-Throughput Analytics in Genomics,” Bioinformatics 28:282-283 (2012), which is hereby incorporated by reference in its entirety). The P-value cutoff for differential expression was set at 1×10^−5, with the minimum absolute log2 fold change set at 0.5.

Data set [4] has as its system H3K27me3 levels at repressed genes. Kind of data set: H3K27me3 ChIP at repressed genes upon GSKJ4 treatment. The class given is cell-based, human. Particulars: 24 to 72 hours post-GSKJ4 treatment. How it is done:
ChIP experiments were performed as described previously (Ntziachristos et al., “Genetic Inactivation of the Polycomb Repressive Complex 2 in T Cell Acute Lymphoblastic Leukemia,” Nature Med. 18:298-303 (2012), which is hereby incorporated by reference in its entirety). In brief, for the analysis of histone marks, the cells were fixed with 1% formaldehyde for 10 minutes at 25° C. and lysed them by the addition of nucleus incubation buffer (15 mM Tris, pH 7.5, 60 mM KCl, 150 mM NaCl, 15 mM MgCl2, 1 mM CaCl2, 250 mM sucrose and 0.3% NP-40) and incubation at 4° C. for 10 minutes. […]
First, enriched ChIP-seq windows were identified separately for each of the two samples under comparison using a window-based approach and the binomial probability distribution to compare signal reads with control reads in each window. Subsequently, for each genomic window enriched in at least one of the two samples, the total number of reads was determined, and the window read counts were normalized using quantile normalization across biological replicates and samples before comparison. […] This comparison was performed independently at different H3K27me3 read density levels to control for artificially high fold changes due to low read counts in the denominator. […]

The subject of data set [5] is T-ALL cell lines (CUTLL1, CEM and P12). The experiment in a line: Subcutaneous or intravenous xenograft of shRNA-treated T-ALL cell lines. In kind it is in vivo, mouse. The note with it: immunocompromised NRG mice; compared with shRenilla-treated cell lines. As for the experimental part: Studies were conducted as previously published (Ntziachristos et al., “Genetic Inactivation of the Polycomb Repressive Complex 2 in T Cell Acute Lymphoblastic Leukemia,” Nature Med. 18:298-303 (2012), which is hereby incorporated by reference in its entirety). In both cases, CUTLL1, P12 or CEM T-ALL cells expressing luciferase (FUW-LUC) and the corresponding shRNA (shJMJD3, shUTX or shRenilla) were used. For the intravenous studies, 1×10^6 cells were injected retroorbitally into sublethally irradiated female NRG (NOD Rag1^−/−Il2rg^−/−) mice. For subcutaneous studies, 1×10^6 cells were mixed with an equal volume of BD Matrigel basement membrane and injected into the flanks of female NOD-SCID mice. In both cases, cell growth was monitored every 2 days using IVIS (Caliper, PerkinElmer).

For another data set, the system named is human T-ALL cells. Kind of data set: shRNA knockdown: loss of representation studies and apoptosis assays. The note with it: shRNA treatment. The class given is cell-based. How it is done: T-ALL cells were infected twice with shRNA-expressing retroviruses and selected using puromycin. Expression studies took place at different time points during the selection period, and the results are presented from day 4 during selection. […] For the cell cycle analysis, 5-bromodeoxyuridine (BrdU; 10 mM) was added for a 1 hour pulse, and incorporation into DNA was determined by using the BrdU Flow Kit (BD Biosciences). Apoptosis was studied by quantification of annexin V staining using the BD Biosciences kit and flow cytometry according to standard protocols provided by the manufacturer. Doxycycline was used at […] final concentration.
Protein-G-coated magnetic beads were purchased from Invitrogen. […] Reporter fluorescence was used (as determined by flow cytometry) for the quantification of shRNA.

Setting [6] is: GSKJ4 vs control inhibitor GSKJ5.

On to `CCOC(=O)CCNc1cc(N2CCc3ccccc3CC2)nc(-c2ccccn2)n1` [GSKJ4, ethyl 3-((6-(4,5-dihydro-1H-benzo[d]azepin-3(2H)-yl)-2-(pyridin-2-yl)pyrimidin-4-yl)amino)propanoate], for which, in the data set on T-ALL cells, the IC50 is 2000 nM. Moreover, in data set [1] (setting [6]), the “apoptosis (annexin V)” value is given as “increased apoptosis” and the cell cycle effect result is reported as “cell cycle arrest”. The “growth of human T-ALL cell lines and primary human T-ALL cells” value in data set [1] (GSKJ4 vs control inhibitor GSKJ5, 24-72 hours) is given as “significantly affected the growth”. Moreover, the “growth of myeloid leukaemia cells, stromal cells and haematopoietic progenitor cells” value in data set [2] was “unaffected”. Besides, the “number of downregulated genes” value in data set [3] (CUTLL1, 72 hours of treatment with GSKJ4) is given as 486 genes. The “H3K27me3 levels at repressed genes” value in data set [4] was “increase in the H3K27me3 levels”.

B1: shJMJD3B: shRNA against JMJD3, SEQ ID NO: 4 (nucleic acid)
chain: ACACCAGCAGTAGCAACAGCAATAGTGAAGCCACAGATGTATTGCTGTTGCTACTGCTGGTGG
As to B1, the “in vivo growth of transplanted T-ALL cells” value in data set [5] is recorded as “significant growth disadvantage”.

B2: shUTX: shRNA against UTX, SEQ ID NO: 5 (nucleic acid)
chain: ACACAAGGTAGTCTACAGAATATAGTGAAGCCACAGATGTATATTCTGTAGACTACCTTGTGG
For B2, in data set [3] (shRNA knockdown), the “number of significantly downregulated protein-coding genes” value came out at 46 genes and the “number of significantly upregulated protein-coding genes” value amounted to 189 genes. For the same molecule, in the data set on human T-ALL cells, the “viability of leukaemic cells” value is “not”.

B3: shJMJD3A: shRNA against JMJD3, SEQ ID NO: 3 (nucleic acid)
chain: CAGGGAAGTTTCGAGAAGTCCTATAGTGAAGCCACAGATGTATAGGACTCTCGAACTTCCCTT
Turning to B3, the “in vivo growth of transplanted T-ALL cells” value in data set [5] is “significant growth disadvantage”.
